Experimental data published in patent publication US4028383A, “Indolopyrones having antiallergic activity” (Warner-Lambert Company, priority 1975, dated 1977).

Test system: PCA reaction
Assay: passive cutaneous anaphylaxis (PCA) procedure
Assay type: in vivo, male rats
Details: for % Inhibition: rats, 30 minutes prior to challenge
Method: In this procedure, male rats, between 180 and 200 grams in weight are passively sensitized forty-eight or seventy-two hours prior to test with rat sera containing reagintype antibodies. These sera are injected intradermally in four separate sites, two on each side of the ventral midline. Dose volume is 0.1 ml.
On the test-day animals receive drug or vehicle (placebo) 30 minutes prior to challenge. Test compounds are given i.p. on an mg/kg basis; usual volume is 0.5 ml/100 g body weight. Controls receive the vehicle, on the same weight-volume basis.
The challenging dose of 1.0 ml of Antigen-Evans Blue is administered i.v. This is prepared from either Ovalbumin or dinitrophenylated bovine gamma globulin, 10 mg, together with 5 ml of 0.5% Evans Blue, U.S.P., and 5 ml of normal saline. At 30 minutes after challenge each rat is sacrificed. A section of skin that includes the four sensitizing injection sites is removed.
Reaction is indicated by a blue coloration of the site and scored on the basis of color intensity. Size of the site is also reported.
Data is reported as the arithmetic mean score of a specific site for that group of five animals; the size of the spot is also reported as the mean for the group.
The relation between dilution of antibody and mean spot diameters approximates a straight line which is constructed by the method of least squares for the control animals. The maximum antibody concentration is set as "100% reactivity", with the extrapolated "zero" antibody concentration being 0%. Using this line the diameter at the highest antibody concentrations in any treated group is expressed as a percent of the control, i.e. "% inhibition." The treatment is judged "active" if the inhibition is 50% or greater.

`Cn1c2ccccc2c2oc(C(=O)O)cc(=O)c21` [Example 5, 4,5-dihydro-5-methyl-4-oxopyrano[3,2-b]indole-2-carboxylic acid] was tested, and the “% Inhibition” value (1.0 mg/kg I.P.) was 30%, the “% Inhibition” value (5.0 mg/kg I.P.) was 100% and the “% Inhibition” value (10.0 mg/kg I.P.) was 100%. For the same compound, the “% Inhibition” value (25.0 mg/kg I.P.) was 100% and the “antiallergic activity in passive cutaneous anaphylaxis” value (male rats, i.p. 30 minutes prior to challenge) was “highly effective as an antiallergic”.
